Data reported in patent US20250099409A1, “TOPICAL THERAPEUTIC” (Beta Biofuel Solutions, LLC, priority 2022, published 2025).

Tests used:
[1] = tested on: severe mouth sores, pain, and skin eruptions; test: Example 7: Patient G, oral spray in cancer patient on Taxotere and Carboplatin chemotherapy; type: in vivo, human
Protocol: Set up: The trial consisted of administering a topical therapeutic spray to a cancer patient receiving Taxotere and Carboplatin chemotherapy. The side effects of cancer treatment presented the patient with severe mouth sores, pain, and skin eruptions which prevented regular mastication and intake of food and some beverages. Patient G's tastebuds were also severely affected, and the taste was unreliable. […] About 250 mg/L concentration of sodium pyruvate oral spray was administered inside the mouth and throat at 1 ml per spray, two to three sprays per administration. […] The product was used ad hoc to provide continuous comfort as saliva reintroduced the chemicals causing discomfort. […] However, issues with taste were not improved with the topical therapeutic spray.

[2] = tested on: rhinitis, and burning in the nose and throat resulting from secondhand cigarette smoke; test: Example 1: Patient A, topical therapeutic spray to nasal cavities and throat; type: in vivo, human
Protocol: Set up: The trial consisted of administering a topical therapeutic spray to a patient suffering from rhinitis, and burning in the nose and throat resulting from persistent and long-term exposure to secondhand cigarette smoke. About 250 mg/L concentration of sodium pyruvate incorporated spray was administered to the nasal cavities and throat at about 1 ml per spray, administered two to three sprays per administration.
The spray treatment was re-applied a couple of hours later. […] The spray was applied prophylactically before bed.

[3] = tested on: epidermal disturbances from psoriatic plaques; test: Example 2: Patient B, topical therapeutic wipe on psoriatic plaques on the back; type: in vivo, human
Protocol: Set up: The trial consisted of administering a topical therapeutic wipe to patients suffering from epidermal disturbances from psoriatic plaques. […] About 250 mg/L concentration of sodium pyruvate formulated with glycerin emollient imbued was administered to the affected area via an imbued wipe. The treatment was applied twice a day, once in the morning and once in the evening.

[4] = tested on: epidermal disturbances from psoriatic plaques; test: Example 3: Patient C, roll-on on psoriatic plaques behind ears and scalp; type: in vivo, human
Protocol: Set up: The trial consisted of administering a topical therapeutic spray to a patient suffering from epidermal disturbances from psoriatic plaques. […] About 250 mg/L concentration of sodium pyruvate formulated with glycerin emollient was administered to the affected area via an imbued roll-on. The treatment was applied twice a day, once in the morning and once in the evening.

[5] = tested on: redness and burning on the general epidermis and deep muscle pain post-radiation therapy; test: Example 4: Patient D, spray and wipe in breast cancer patient post-radiation therapy; type: in vivo, human
Description: Set up: The trial consisted of administering a topical therapeutic spray and wipe to a breast cancer patient suffering from redness and burning on the general epidermis and deep muscle pain post-radiation therapy treatment. The patient received 30 daily radiation treatments in just over a month. […] The topical therapeutic spray was used afterwards ad hoc.

[6] = tested on: severe burning, itching, and peeling in the urethral, vaginal, and anal areas; test: Example 5: Patient E, imbued wipe in patient on Taxotere and Carboplatin chemotherapy with monoclonal antibody infusion; type: in vivo, human; conditions: continued administration of wipe
Protocol: Set up: The trial consisted of administering a topical therapeutic imbued wipe to a patient receiving a concurrent Taxotere and Carboplatin chemotherapy, with monoclonal antibody infusion treatments. The side effects of cancer treatment presented the patient with severe burning, itching, and peeling in the urethral, vaginal, and anal areas due to the elimination of the chemicals via urine and stools. About 250 mg/L concentration of sodium pyruvate formulated with glycerin emollient wipe was used to clean the affected areas after elimination, in addition to when the discomforts were present.
Patient E continued using the topical treatment concurrently with cancer therapy, and for about a month after.

[7] = tested on: redness, itchy splotches on the underside of the body, and fur-less areas around the ears due to ragweed pollen sensitivity; test: Example 6: Patient F, spray on dog with ragweed pollen sensitivity; type: in vivo, Jack Russel Terrier
Protocol: Set up: The trial consisted of administering a topical therapeutic spray to a 5-year-old Jack Russel Terrier suffering from redness, itchy splotches on the underside of the body, and fur-less areas around the ears due to ragweed pollen sensitivity. […] After cleaning with water and drying the affected areas, about 250 mg/L concentration of sodium pyruvate spray formulated with glycerin was applied to the undercarriage and ears.
Summary: After the first administration, the redness subsided, and the dog relaxed within 15 minutes. The treatment was administered after each time the dog went outside and continued throughout the ragweed pollen season.

[8] = tested on: moderate sunburn on the face, shoulders, and arms; test: Example 8: Patient H, spray on moderate sunburn; type: in vivo, human
Protocol: Set up: The trial consisted of administering a topical therapeutic spray to a patient with moderate sunburn on the face, shoulders, and arms early in the summer season while working on a field project. The patient had used sunscreen, but due to the prolonged exposure, the effects of the sunburn were present. The face was particularly red as it was directly exposed to ultraviolet (UV) radiation and not covered by clothing. About 250 mg/L concentration of sodium pyruvate formulated with glycerin emollient spray was applied to the affected areas.
The spray was applied for another day until the redness subsided.

[9] = tested on: redness, burning, and skin inflammation after exposure to irritating vegetation, e.g., poison ivy; test: Example 9: Patient I, spray after exposure to irritating vegetation; type: in vivo, human; conditions: about 250 mg/L with glycerin emollient spray, after the first administration
Protocol: The affected area was cleaned with cold water without soap to remove the oils and waxes transferred from the plant. About 250 mg/L concentration of sodium pyruvate formulated with glycerin emollient spray was applied to the affected areas of the general epidermis.
The topical therapeutic spray was readministered ad hoc depending on the severity of the exposure.

[10] = tested on: burning throat due to atmospheric dryness, allergic reaction, or disease state reaction; test: Example 10: Patient J, oral spray for burning throat; type: in vivo, human; conditions: about 250 mg/L oral spray, 1 ml per spray, two to three sprays, after the first administration
Protocol: Set up: The trial consisted of administering a topical therapeutic spray to a patient suffering from a burning throat due to atmospheric dryness, allergic reaction, or disease state reaction. About 250 mg/L concentration of sodium pyruvate oral spray was administered inside the mouth and throat at 1 ml per spray, two to three sprays per administration.
The product was used ad hoc to provide continuous comfort.

Question: Which “alleviation of mouth sores, pain and skin eruptions” value ([1]; applied to the affected areas as recommended, before the topical therapeutic) does the source give for `O=C([O-])O.[Na+]` [baking soda] here?
Answer: did little to alleviate the problem

Question: How did the “effect of the second treatment on burning” value ([2]; about 250 mg/L spray re-applied a couple of hours later) turn out when `CC(=O)C(=O)[O-].[Na+]` [sodium pyruvate, 2-oxopropanoic acid sodium salt] was run?
Answer: complete alleviation of the burning to both the nose and throat

Question: And the “time to reduced burning or itching in the affected nasal and throat areas” value ([2]; about 250 mg/L spray, about 1 ml per spray, two to three sprays, after the first administration)?
Answer: ≤ 15 min

Question: And the “recurrence of pain and burning” value ([2]; spray also applied prophylactically before bed)?
Answer: never returned

Question: What about the “outcome with continuous administration” value ([3]; about 250 mg/L with glycerin emollient, imbued wipe, twice a day) of the same compound?
Answer: itching and burning did not return, and the skin surface returned to normal form

Question: What about the “time to reduced burning or itching” value ([3]; about 250 mg/L with glycerin emollient, imbued wipe, twice a day, after administration) of the same compound?
Answer: ≤ 15 min

Question: And the “outcome when treatment was interrupted” value ([3]; treatment interrupted)?
Answer: the plaques returned along with itching and burning

Question: What about the “outcome with continuous administration” value ([4]; about 250 mg/L with glycerin emollient, imbued roll-on, twice a day) of the same compound?
Answer: itching and burning did not return and the skin surface returned to normal form

Question: And the “time to reduced burning and itching” value ([4]; about 250 mg/L with glycerin emollient, imbued roll-on, twice a day, after administration)?
Answer: ≤ 15 min

Question: What about the “outcome when administration was interrupted” value ([4]; administration interrupted) of the same compound?
Answer: the plaques returned along with itching and burning

Question: And the “time to reduction in burning” value ([5]; about 250 mg/L with glycerin emollient, after the first administration via an imbued cloth wipe)?
Answer: ≤ 30 min

Question: And the “blistering to the skin” value ([5]; about 250 mg/L with glycerin emollient, imbued cloth wipe)?
Answer: without any blistering to the skin

Question: What about the “browning of the affected area (remark of radiation oncologist at follow-up visits)” value ([5]; wipe, then spray ad hoc) of the same compound?
Answer: dissipated more rapidly than usual

Question: And the “sloughing of damaged skin” value [6]?
Answer: ceased within a few days of continued administration

Question: What about the “time until the redness subsided and the dog relaxed” value ([7]; about 250 mg/L spray with glycerin on undercarriage and ears, after the first administration) of the same compound?
Answer: ≤ 15 min

Question: What about the “outcome when administration was interrupted” value ([7]; during the pollen season, administration interrupted) of the same compound?
Answer: the itching, redness, and scratching returned

Question: What about the “time to almost complete relief of pain and burn” value ([1]; about 250 mg/L oral spray, 1 ml per spray, two to three sprays, after the first administration) of the same compound?
Answer: ≤ 30 min

Question: And the “consumption of food and drinks” value ([1]; oral spray used ad hoc)?
Answer: able to regularly consume food and drinks without discomfort

Question: What about the issues with taste ([1]; oral spray used ad hoc) of the same compound?
Answer: not improved

Question: And the “sores, pain and discomfort with use of the spray” value ([1]; oral spray used ad hoc)?
Answer: the sores resolved, and the pain and discomfort were managed

Question: And the “time to reduced burning” value ([8]; about 250 mg/L with glycerin emollient spray, after the first administration)?
Answer: ≤ 15 min

Question: And the “blistering and peeling of the skin due to sunburn” value ([8]; spray applied for another day until the redness subsided)?
Answer: aided in the prevention of blistering and peeling

Question: What about the “time to reduced burning and itching” value [9] of the same compound?
Answer: ≤ 15 min

Question: What about the “time to reduced burning, itching, and general discomfort” value [10] of the same compound?
Answer: ≤ 15 min
